Entries after “also recorded” stand apart in the source; their conditions may differ.
Tests used:
[1] = target: T1, human pancreatic α-amylase (Homo sapiens, UniProt P04746); assay: α-amylase inhibition assay; assay type: biochemical
T1 sequence (P04746 16-511): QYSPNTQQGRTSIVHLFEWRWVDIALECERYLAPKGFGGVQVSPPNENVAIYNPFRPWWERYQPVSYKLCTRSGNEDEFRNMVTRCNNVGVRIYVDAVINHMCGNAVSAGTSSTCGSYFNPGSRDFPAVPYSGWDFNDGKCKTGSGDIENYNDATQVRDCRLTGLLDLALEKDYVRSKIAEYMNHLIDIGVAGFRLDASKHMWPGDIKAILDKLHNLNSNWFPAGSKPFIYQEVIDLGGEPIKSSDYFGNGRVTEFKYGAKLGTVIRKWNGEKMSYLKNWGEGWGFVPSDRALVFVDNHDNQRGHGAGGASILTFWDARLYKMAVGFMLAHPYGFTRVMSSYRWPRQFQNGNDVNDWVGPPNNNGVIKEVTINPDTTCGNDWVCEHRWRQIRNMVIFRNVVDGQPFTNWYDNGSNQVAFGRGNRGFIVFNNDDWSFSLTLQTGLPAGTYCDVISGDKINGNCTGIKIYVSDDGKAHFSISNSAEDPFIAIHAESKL

[2] = target: human lysosomal acid-α-glucosidase (Homo sapiens, UniProt P10253); assay: α-glucosidase inhibition assay; assay type: biochemical
α-amylase = target: T2, α-amylase (Homo sapiens, UniProt P04746); assay: enzymatic kinetic study on α-amylase; assay type: biochemical; details: for mode of α-amylase inhibition: Lineweaver-Burk plot
T2 sequence (P04746 16-511): T1 sequence (P04746 16-511)

α-glucosidase = α-glucosidase (Homo sapiens, UniProt P10253); assay: enzymatic kinetic study on α-glucosidase; assay type: biochemical; details: for mode of α-glucosidase inhibition: Lineweaver-Burk plot
female mice = assay: acute oral toxicity; assay type: in vivo; details: three female mice

SMILES | IC50 [1] [µM] | IC50 [2] [µM] | further results
CC(C)[C@@H]1CC[C@@H](C)C[C@@]12N(C)C(=O)[C@@H]1C[C@@H](Cc3cccc(/C=N/NC(=O)Nc4ccccc4)c3O)ON12 [5a] | 151 ± 7.4 | 263 ± 12.2 | 
C[C@H]1O[C@H](O[C@H]2[C@H](O)[C@@H](O)[C@@H](O[C@H]3[C@H](O)[C@@H](O)C(O)O[C@@H]3CO)O[C@@H]2CO)[C@H](O)[C@@H](O)[C@@H]1N[C@H]1C=C(CO)[C@@H](O)[C@H](O)[C@H]1O (stereo partly drawn) [Acarbose, reference compound] |  |  | mode of α-amylase inhibition (α-amylase): competitive; mode of α-glucosidase inhibition (α-glucosidase): competitive; also recorded: compete with the substrate for binding to the active site
CC(C)[C@@H]1CC[C@@H](C)C[C@@]12N(C)C(=O)[C@@H]1C[C@@H](Cc3cccc(/C=N/NC(=S)N(C)C)c3O)ON12 [5d] | 58.8 ± 2.22 | 98.6 ± 4.35 | 
CNC(=S)N/N=C/c1cccc(C[C@@H]2C[C@H]3C(=O)N(C)[C@@]4(C[C@H](C)CC[C@H]4C(C)C)N3O2)c1O [5g] | 64.2 ± 3.15 | 158 ± 7.09 | 
CC(C)[C@@H]1CC[C@@H](C)C[C@@]12N(C)C(=O)[C@@H]1C[C@@H](Cc3cccc(/C=N/NC(N)=O)c3O)ON12 [5f] | 26.7 ± 1.25 | 39.1 ± 1.83 | fold improvement over acarbose, α-amylase ([1]; versus acarbose IC50): about 11 fold; fold improvement over acarbose, α-glucosidase ([2]; versus acarbose IC50): ~20 fold; Ki (α-amylase): 24.9 µM; mode of α-amylase inhibition (α-amylase): competitive inhibition; Ki (α-glucosidase): 37 µM; mode of α-glucosidase inhibition (α-glucosidase): competitive; also recorded: compete with the substrate for binding to the active site; survival at 1600 mg/kg b.w. (female mice; 1600 mg/kg b.w.): only one mouse was survived; dose with no toxicity (no significant adverse effects or mortality) (female mice): up to 1000 mg/kg b.w.
CCNC(=S)N/N=C/c1cccc(C[C@@H]2C[C@H]3C(=O)N(C)[C@@]4(C[C@H](C)CC[C@H]4C(C)C)N3O2)c1O [5c] | 73.1 ± 3.31 | 203 ± 10 | 
CC(C)[C@@H]1CC[C@@H](C)C[C@@]12N(C)C(=O)[C@@H]1C[C@@H](Cc3cccc(/C=N/NC(=S)Nc4ccccc4)c3O)ON12 [5b] | 198 ± 9.5 | 286 ± 13.5 | 
CC(C)[C@@H]1CC[C@@H](C)C[C@@]12N(C)C(=O)[C@@H]1C[C@@H](Cc3cccc(/C=N/NC(N)=S)c3O)ON12 [5e] | 33.9 ± 1.09 | 49.3 ± 2.19 | 

From article PMC11619978 (Heliyon, 2024)
